We go through four compounds from patent publication US11944623B2, “Modulators of Kv3 channels to treat pain” (Autifony Therapeutics Limited, priority 2015, dated 2024).

The target of this assay is T1, human Kv3.3 channels (Homo sapiens, UniProt Q14003).
T1 construct: expressed in transfected cells
T1 sequence (Q14003 1-757): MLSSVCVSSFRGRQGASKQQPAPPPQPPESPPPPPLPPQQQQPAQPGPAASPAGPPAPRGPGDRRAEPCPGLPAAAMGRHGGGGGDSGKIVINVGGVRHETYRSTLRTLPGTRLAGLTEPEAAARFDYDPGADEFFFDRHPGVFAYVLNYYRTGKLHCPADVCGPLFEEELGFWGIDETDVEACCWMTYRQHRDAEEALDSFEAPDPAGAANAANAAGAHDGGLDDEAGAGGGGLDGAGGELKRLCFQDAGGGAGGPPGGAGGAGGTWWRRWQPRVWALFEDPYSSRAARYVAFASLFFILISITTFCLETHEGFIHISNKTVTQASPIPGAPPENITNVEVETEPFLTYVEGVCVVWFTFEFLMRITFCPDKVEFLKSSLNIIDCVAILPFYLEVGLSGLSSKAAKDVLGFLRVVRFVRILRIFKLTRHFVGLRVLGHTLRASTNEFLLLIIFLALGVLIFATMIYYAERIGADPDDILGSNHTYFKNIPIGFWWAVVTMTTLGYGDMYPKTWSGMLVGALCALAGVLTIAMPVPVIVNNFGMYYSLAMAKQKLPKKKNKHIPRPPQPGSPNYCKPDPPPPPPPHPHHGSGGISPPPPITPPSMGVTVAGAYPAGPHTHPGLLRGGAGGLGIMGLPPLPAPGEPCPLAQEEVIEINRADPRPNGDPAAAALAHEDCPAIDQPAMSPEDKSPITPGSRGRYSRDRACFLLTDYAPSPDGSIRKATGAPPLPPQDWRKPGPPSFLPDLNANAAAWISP
The assay is described as follows: hKv3.3 IonWorks Quattro whole-cell current potentiation assay. The assay is classed as cell-based. The conditions noted are these: for mean increase in human Kv3.3 peak current at 0 mV: 12.5 micromolar; for EC50: read-out: pEC50 for Kv3.3 (converted). An excerpt:
The ability of the compounds of the invention to modulate the voltage-gated potassium channel subtypes Kv3.3/Kv3.2/Kv3.1 may be determined using the following assay. Analogous methods may be used to investigate the ability of the compounds of the invention to modulate other channel subtypes.
To assess compound effects on human Kv3.3 channels (hKv3.3), a stable cell line expressing human Kv3.3 channels was created by transfecting Chinese Hamster Ovary (CHO)-K1 cells with a pBacMire_KCNC-3 vector. Cells were cultured in DMEM/F12 (Gibco) supplemented with 10% Foetal Bovine Serum (Gibco), 1× non-essential amino acids (Invitrogen) and geneticin (G418) 400 microg/mL. Cells were grown and maintained at 37° C. in a humidified environment containing 5% CO2 in air.
The day of the experiment, cells were removed from the incubator and the culture medium removed. Cells were washed with 5 ml of Dulbecco's PBS (DPBS) calcium and magnesium free and detached by the addition of 3 ml Versene (Invitrogen, Italy) followed by a brief incubation at 37° C. for 5 minutes. The flask was tapped to dislodge cells and 10 ml of DPBS containing calcium and magnesium was added to prepare a cell suspension. The cell suspension was then placed into a 15 ml centrifuge tube and centrifuged for 2 min at 1200 rpm. After centrifugation, the supernatant was removed and the cell pellet re-suspended in 4 ml of DPBS containing calcium and magnesium using a 5 ml pipette to break up the pellet. Cell suspension volume was then corrected to give a cell concentration for the assay of approximately 3 million cells per ml.
Experiments were conducted at room temperature using IonWorks Quattro™ planar array electrophysiology technology (Molecular Devices Corp.) with PatchPlate™ PPC. Stimulation protocols and data acquisition were carried out using a microcomputer (Dell Pentium 4). Planar electrode hole resistances (Rp) were determined by applying a 10 mV voltage step across each well. These measurements were performed before cell addition. After cell addition and seal formation, a seal test was performed by applying a voltage step from −80 mV to −70 mV for 160 ms. Following this, amphotericin-B solution was added to the intracellular face of the electrode to achieve intracellular access. Cells were held at −70 mV. Leak subtraction was conducted in all experiments by applying 50 ms hyperpolarizing (10 mV) prepulses to evoke leak currents followed by a 20 ms period at the holding potential before test pulses. For hKv3.2 and hKv3.1 assays, from the holding potential of −70 mV, a first test pulse to −15 mV was applied for 100 ms and following a further 100 ms at −70 mV, a second pulse to 40 mV was applied for 50 ms. Cells were then maintained for a further 100 ms at −100 mV and then a voltage ramp from −100 mV to 40 mV was applied over 200 ms. For hKv3.3 assays, from the holding potential of −70 mV, a first test pulse to 0 mV was applied for 500 ms and following a further 100 ms at −70 mV, a second pulse to 40 mV was applied for 200 ms. These longer test pulses were used to study inactivation of hKv3.3 channels.
Test pulses protocol may be performed in the absence (pre-read) and presence (post-read) of the test compound. Pre- and post-reads may be separated by the compound addition followed by a 3-minute incubation.
The intracellular solution contained the following (in mM): K-gluconate 100, KCl 54, MgCl2 3.2, HEPES 5, adjusted to pH 7.3 with KOH. Amphotericin-B solution was prepared as 50 mg/ml stock solution in DMSO and diluted to a final working concentration of 0.1 mg/ml in intracellular solution. The external solution was Dulbecco's Phosphate Buffered Saline (DPBS) and contained the following (in mM): CaCl2 0.90, KCl 2.67, KH2PO4 1.47, MgCl·6H2O 0.493, NaCl 136.9, […] 8.06, with a pH of 7.4. […]
A general note: The patch-clamp technique gives a direct electrical read-out from membranes.

For the compound `CC[C@@]1(C)NC(=O)N(c2cnc(Oc3ccc(C)c(OC(F)(F)F)c3)nc2)C1=O` [Compound 2, (5R)-5-ethyl-5-methyl-3-[2-({4-methyl-3-[(trifluoromethyl)oxy]phenyl}oxy)-5-pyrimidinyl]-2,4-imidazolidinedione], the “mean increase in human Kv3.3 peak current at 0 mV” value (“mean increase” below) is recorded as 113% and the EC50 was 11.7 µM.

As for `Cc1ccc(Oc2ncc(N3C(=O)NC(C)(C)C3=O)cn2)c2c1OCC21CC1` [Compound 1, 5,5-dimethyl-3-[2-(7-methylspiro[2H-benzofuran-3,1′-cyclopropane]-4-yl)oxypyrimidin-5-yl]imidazolidine-2,4-dione], the “mean increase” value came out at 192% and the EC50 is 6.76 µM.

Take `CC[C@H]1NC(=O)N(c2ccc(Oc3ccc(C)c4c3C3(CC3)CO4)nc2)C1=O` [Compound 4, (5R)-5-ethyl-3-[6-(7-methylspiro[2H-benzofuran-3,1′-cyclopropane]-4-yl)oxy-3-pyridyl]imidazolidine-2,4-dione]: the “mean increase” value worked out at 365%.

With `Cc1ccc(Oc2ccc(-n3c(C)n[nH]c3=O)cn2)c2c1OCC21CC1` [Compound 3, 5-methyl-4-{6-[(7-methylspiro[1-benzofuran-3,1′-cyclopropan]-4-yl)oxy]pyridin-3-yl}-2,4-dihydro-3H-1,2,4-triazol-3-one], the EC50 was 17.4 µM.
